{
  "source": "patent US12048317B2",
  "about": "“Astaxanthin-containing condiment and a preparation method therefor” (South China University of Technology, priority 2018, dated 2024)",
  "format_in_all_cases": "physicochemical",
  "key": {"[1]": {"assay": "Drug-loading rate (amount of pigment contained in each gram of the microcapsule powder)", "conditions": "Example 4 microcapsules", "protocol": "(§1) This example selected the following optimal proportion: Supernatant (V, mL):gelatin (W, g):porous starch (W, g)=400:15:6 (core material (W, g):wall material (W, g)=3.95:21); the microencapsulation temperature was 40° C., and the microencapsulation time was 2 h. The encapsulation rate was calculated by detecting the total amount of pigment in the microcapsule powder and the amount of pigment on the surface (refer to Gomez-Estaca J. Food Hydrocolloids, 2016, 61:155-162). The amount of pigment on the surface was obtained by directly adding acetone for extraction. The total amount of pigment in the microcapsule powder was obtained as follows: dissolving the microcapsule powder in distilled water, shaking and then adding acetone thereto, mixing uniformly and then centrifuging, using petroleum ether to back-extract the pigment, and taking the upper layer of pigment-petroleum ether to measure the absorbance A with a spectrophotometer; if the pigment in the lower layer of acetone was not extracted completely, petroleum ether was added repeatedly until the organic solvent in the lower layer was colorless. Drug-loading rate refers to the amount of pigment contained in each gram of the microcapsule powder."}, "[2]": {"assay": "Concentration of astaxanthin in the aqueous supernatant after glass-bead wall breaking of P. rhodozyma (spectrophotometer)", "conditions": "water, 1 mm glass beads 500 g/L, 22° C., 150 rpm", "protocol": "Adding P. rhodozyma to 20 mL of water to obtain yeast suspensions with concentrations of 20 g/L, 50 g/L and 100 g/L (dry weight), adding glass beads with a particle size of 1 mm to the yeast suspensions to make the content of the glass beads in the yeast suspensions 500 g/L, and then shaking to break walls in a shaker at 22° C. at a stirring speed of 150 rpm for 48 h. After breaking the wall, centrifuging at 10000 rpm for 10 min, and then collecting the precipitate and supernatant. Extracting astaxanthin in the supernatant with acetone and back-extracting it with petroleum ether, extracting the astaxanthin in the precipitate with acetone, and then using a spectrophotometer to detect the content of astaxanthin in the supernatant and precipitate. Using the amount of astaxanthin extracted by the acid-heat treatment method as a control, i.e., regarding the amount of astaxanthin extracted by the acid-heat treatment method by default as the total amount of astaxanthin for the calculation of the astaxanthin extraction rate.\nAdding P. rhodozyma to 20 mL of water to obtain a yeast suspension with a concentration of 20 g/L (dry weight), adding glass beads with a particle size of 1 mm to the yeast suspension to make the content of the glass beads in the yeast suspension 500 g/L, and then shaking to break walls in a shaker at 22° C. at a stirring speed of 150 rpm for 6 h, 24 h and 48 h, respectively. After breaking the wall, centrifuging at 10000 rpm for 10 min, and then collecting the precipitate and supernatant. Extracting astaxanthin in the supernatant with acetone and back-extracting it with petroleum ether, extracting the astaxanthin in the precipitate with acetone, and then using a spectrophotometer to detect the content of astaxanthin in the supernatant and precipitate. Using the amount of astaxanthin extracted by the acid-heat treatment method as a control, i.e., regarding the amount of astaxanthin extracted by the acid-heat treatment method by default as the total amount of astaxanthin for the calculation of the astaxanthin extraction rate."}, "[3]": {"assay": "Encapsulation rate of the microcapsule powder (total pigment vs pigment on the surface)", "conditions": "Example 4 microcapsules", "protocol": "as §1"}},
  "data": [
    {"smiles": "CC1=C(/C=C/C(C)=C/C=C/C(C)=C/C=C/C=C(C)/C=C/C=C(C)/C=C/C2=C(C)C(=O)[C@@H](O)CC2(C)C)C(C)(C)C[C@H](O)C1=O", "note": "[astaxanthin]", "values": [
      {"measurement": "drug-loading rate of astaxanthin", "setting": "[1]; concentration of yeast 20 g/L", "value": 3.45, "unit": "mg/g"},
      {"measurement": "drug-loading rate of astaxanthin", "setting": "[1]; concentration of yeast 50 g/L", "value": 6.79, "unit": "mg/g"},
      {"measurement": "drug-loading rate of astaxanthin", "setting": "[1]; concentration of yeast 100 g/L", "value": 10.42, "unit": "mg/g"},
      {"measurement": "concentration of astaxanthin in the supernatant after the wall breaking", "setting": "[2]; P. rhodozyma 20 g/L, 6 h", "value": 93.72, "unit": "µg/mL"},
      {"measurement": "concentration of astaxanthin in the supernatant after the wall breaking", "setting": "[2]; P. rhodozyma 20 g/L, 24 h", "value": 306.43, "unit": "µg/mL"},
      {"measurement": "concentration of astaxanthin in the supernatant after the wall breaking", "setting": "[2]; P. rhodozyma 20 g/L, 48 h", "value": 459.57, "unit": "µg/mL"},
      {"measurement": "concentration of astaxanthin in the supernatant after the wall breaking", "setting": "[2]; P. rhodozyma 50 g/L, 48 h", "value": 843.06, "unit": "µg/mL"},
      {"measurement": "concentration of astaxanthin in the supernatant after the wall breaking", "setting": "[2]; P. rhodozyma 100 g/L, 48 h", "value": 1043.17, "unit": "µg/mL"},
      {"measurement": "encapsulation rate of astaxanthin", "setting": "[3]; concentration of yeast 20 g/L", "value": 87.8, "unit": "%"},
      {"measurement": "encapsulation rate of astaxanthin", "setting": "[3]; concentration of yeast 50 g/L", "value": 78.69, "unit": "%"},
      {"measurement": "encapsulation rate of astaxanthin", "setting": "[3]; concentration of yeast 100 g/L", "value": 75.62, "unit": "%"}
    ]}
  ]
}
